Experimental data published in ChEMBL document CHEMBL1201862, “PubChem BioAssay data set” (2004).
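Results reflect a 48-hour exposure of cells in 96-well plates to compound at five concentrations. The concentration for 50% growth inhibition is given as GI50.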 Active and inactive are the calls of the source. Cut-off read from the data, not from the text of the source: active = GI50 up to about 1.1 µM and inactive = higher.

Assays:
Assay in all cases: DTP human tumour cell line panel, 48 h
HOP-62 = system: HOP-62
NCI-H460 = system: NCI-H460
Hs-578T = system: Hs-578T
A549 = system: A549
SK-MEL-5 = system: SK-MEL-5
SNB-75 = system: SNB-75
UACC-257 = system: UACC-257
786-0 = system: 786-0
LOX IMVI = system: LOX IMVI
A498 = system: A498
RXF 393 = system: RXF 393
SN12C = system: SN12C
MDA-MB-231 = system: MDA-MB-231
KM12 = system: KM12
NCI-H226 = system: NCI-H226
OVCAR-5 = system: OVCAR-5
U-251 = system: U-251
Malme-3M = system: Malme-3M
MCF7 = system: MCF7
SR = system: SR

SMILES | GI50 (HOP-62) | GI50 (NCI-H460) | GI50 (Hs-578T) | GI50 (A549) | GI50 (SK-MEL-5) | GI50 (SNB-75) | GI50 (UACC-257) | GI50 (786-0) | GI50 (LOX IMVI) | GI50 (A498) | GI50 (RXF 393) | GI50 (SN12C) | GI50 (MDA-MB-231) | GI50 (KM12) | GI50 (NCI-H226) | GI50 (OVCAR-5) | GI50 (U-251) | GI50 (Malme-3M) | GI50 (MCF7) | GI50 (SR)
Cc1cc(S(=O)(=O)Nc2nc(N)n(C)n2)c(S)cc1Cl | > 10 µM (inactive) | > 10 µM (inactive) | > 10 µM (inactive) | > 10 µM (inactive) | > 10 µM (inactive) | > 10 µM (inactive) | > 10 µM (inactive) | > 10 µM (inactive) | > 10 µM (inactive) | > 10 µM (inactive) | > 10 µM (inactive) | > 10 µM (inactive) | > 10 µM (inactive) | > 10 µM (inactive) | > 10 µM (inactive) | > 10 µM (inactive) | > 10 µM (inactive) | > 10 µM (inactive) | > 10 µM (inactive) | 
Clc1cccc(C2ON=C(c3ccccc3)N2C23CC4CC(CC(C4)C2)C3)c1Cl (configuration not stated) | > 10 µM (inactive) | > 10 µM (inactive) | > 10 µM (inactive) | > 10 µM (inactive) | > 10 µM (inactive) | > 10 µM (inactive) | > 10 µM (inactive) | > 10 µM (inactive) | > 10 µM (inactive) | > 10 µM (inactive) | > 10 µM (inactive) | > 10 µM (inactive) | > 10 µM (inactive) | > 10 µM (inactive) | > 10 µM (inactive) | > 10 µM (inactive) | > 10 µM (inactive) | > 10 µM (inactive) | > 10 µM (inactive) | 
CCOC(=O)c1nnn(CCCCO)c1C(=O)OCC | > 100 µM (inactive) | > 100 µM (inactive) | > 100 µM (inactive) | > 100 µM (inactive) | > 100 µM (inactive) | > 100 µM (inactive) | > 100 µM (inactive) | > 100 µM (inactive) | > 100 µM (inactive) |  | > 100 µM (inactive) | > 100 µM (inactive) | > 100 µM (inactive) | > 100 µM (inactive) | > 100 µM (inactive) |  | > 100 µM (inactive) | > 100 µM (inactive) | > 100 µM (inactive) | > 100 µM (inactive)
N=c1oc2ccc([N+](=O)[O-])cc2cc1C(=O)NCc1ccccc1 | 38.5 µM (inactive) | 41 µM (inactive) | 18.7 µM (inactive) | 57.1 µM (inactive) | 18.7 µM (inactive) | 11.5 µM (inactive) | 19.8 µM (inactive) | 24.6 µM (inactive) | 17.7 µM (inactive) |  | 14.7 µM (inactive) | 19.9 µM (inactive) | 22 µM (inactive) | 14.3 µM (inactive) | 12.9 µM (inactive) | 32.9 µM (inactive) | 28 µM (inactive) | 13.5 µM (inactive) | 35.7 µM (inactive) | 34.4 µM (inactive)
O=Cc1cc2c(cc1-c1c(C=O)ccc3c1OCO3)OCO2 | > 10 µM (inactive) |  | > 10 µM (inactive) | > 10 µM (inactive) | > 10 µM (inactive) | > 10 µM (inactive) | > 10 µM (inactive) | > 10 µM (inactive) | > 10 µM (inactive) |  |  | > 10 µM (inactive) | > 10 µM (inactive) | > 10 µM (inactive) |  |  | > 10 µM (inactive) | > 10 µM (inactive) | > 10 µM (inactive) | > 10 µM (inactive)
COc1ccc(OC)c(CC2CCc3nc(N)nc(N)c3C2)c1 (configuration not stated) | 4.27 µM (inactive) | < 0.01 µM (active) | 23.7 µM (inactive) | < 0.01 µM (active) | < 0.019 µM (active) | 0.828 µM (active) | 5.78 µM (inactive) | 0.0565 µM (active) | 0.0561 µM (active) | 23.1 µM (inactive) | < 0.01 µM (active) | 14.5 µM (inactive) | 25.4 µM (inactive) | 1.56 µM (inactive) | 20.9 µM (inactive) | 0.51 µM (active) | > 49.3 µM (inactive) | 0.0334 µM (active) | 0.509 µM (active) | 
O=[N+]([O-])c1cc(Cl)ccc1Sc1ccccc1 | > 100 µM (inactive) | 75 µM (inactive) | > 100 µM (inactive) | > 100 µM (inactive) | 75.2 µM (inactive) | 20.8 µM (inactive) | > 100 µM (inactive) | > 100 µM (inactive) | > 100 µM (inactive) | > 100 µM (inactive) | 80.2 µM (inactive) | 77.4 µM (inactive) | > 100 µM (inactive) | 98.6 µM (inactive) | 34.8 µM (inactive) | > 100 µM (inactive) | 5.89 µM (inactive) | > 100 µM (inactive) | > 100 µM (inactive) | 
Cc1c(NC(=O)CSC(=S)N2CCN(Cc3ccccc3)CC2)c(=O)n(-c2ccccc2)n1C | > 100 µM (inactive) | > 100 µM (inactive) | > 100 µM (inactive) | > 100 µM (inactive) | > 100 µM (inactive) |  | > 100 µM (inactive) | > 100 µM (inactive) | > 100 µM (inactive) |  | > 100 µM (inactive) | > 100 µM (inactive) | > 100 µM (inactive) | > 100 µM (inactive) | > 100 µM (inactive) | > 100 µM (inactive) | > 100 µM (inactive) | > 100 µM (inactive) | > 100 µM (inactive) | > 100 µM (inactive)
COc1cccc(-c2cc(O)c3cc(N4CCOCC4)ccc3n2)c1 | 0.0586 µM (active) | 0.177 µM (active) | 0.0184 µM (active) | 0.113 µM (active) | 0.0231 µM (active) | 0.0377 µM (active) | 0.0559 µM (active) | 0.0411 µM (active) | 0.049 µM (active) |  |  | 0.0678 µM (active) | 0.13 µM (active) | 0.0424 µM (active) | 0.0383 µM (active) | 0.151 µM (active) | 0.037 µM (active) | 0.0131 µM (active) | 0.0484 µM (active) | 0.0158 µM (active)
Cc1c2ccccc2c(/C=N/NC(=O)CSCC(=O)N/N=C/c2c3ccccc3c(C)c3ccccc23)c2ccccc12 | 12.9 µM (inactive) | > 57.7 µM (inactive) | 46 µM (inactive) | > 64.1 µM (inactive) | 54.7 µM (inactive) | > 27.4 µM (inactive) | 31.6 µM (inactive) | 20.7 µM (inactive) | > 57.4 µM (inactive) | 21.7 µM (inactive) | 16.3 µM (inactive) | 61.2 µM (inactive) | 31.2 µM (inactive) | > 56.4 µM (inactive) | > 44.7 µM (inactive) | 38.9 µM (inactive) | 29.6 µM (inactive) | 37 µM (inactive) | 23 µM (inactive) | 
S=P(N1CC1)(N1CC1)N1CC1 [THIOTEPA] | 31.3 µM (inactive) | 5.33 µM (inactive) | 361 µM (inactive) | 50.4 µM (inactive) | 97.9 µM (inactive) | 97.3 µM (inactive) | 134 µM (inactive) | 39.8 µM (inactive) | 39.6 µM (inactive) | 126 µM (inactive) | 101 µM (inactive) | 35.5 µM (inactive) | 274 µM (inactive) | 171 µM (inactive) | 110 µM (inactive) | 147 µM (inactive) | 58.7 µM (inactive) | 141 µM (inactive) | 30.7 µM (inactive) | 
